How the values were obtained:
[1] = Hematological and clinical chemistry blood parameters; assay type: in vivo, New Zealand White (NZW) rabbit
Description: Arterial blood samples from the central auricular artery of the left tumor free ear were taken on day 14 post inoculation (directly before the first gas insufflation/sham treatment) and on day 19 post inoculation (24 h after the last gas insufflation/sham treatment). Additional blood samples were taken on day 90 from the O3/O2-rem animals (FIG. 1a). For hematological investigations we used an autoanalyzer (Vet abc™ Animal Blood Counter, ABX Diagnostics, Goettingen, Germany), that has been carefully adjusted and validated for the analysis of rabbit blood. For differential blood counts the RBC count was determined together with the hematocrit (HCT) and hemoglobin (HGB). […] Data were expressed as mean values±SEM. For clinical chemistry investigations creatinine, GOT, and GPT values were measured with the Reflovet® Plus system (Roche Diagnostics GmbH, Mannheim, Germany) to monitor for kidney and liver functions.
For comparison of survival rates of the three experimental groups the logrank test was performed considering p values<0.05 as significant. The survival probability of rabbits calculated from the time of tumor cell inoculation until day 90 was depicted according to the Kaplan-Meier method. […] Statistical differences in mean body weight between the experimental groups were evaluated at daily intervals with the unpaired Student's t test with two tail p values. […]

VX2 auricular carcinoma = test: Therapy of auricular VX2 carcinoma in rabbits by intraperitoneal gas insufflation (survival, tumor clearance, lung metastases); assay type: in vivo, New Zealand White (NZW) rabbit; settings: n=14 (O3/O2), n=13 (O2)
[2] = inhaled ozone; cited from earlier work

SMILES | RBC ([1]; d 14, directly before the first insufflation) | RBC ([1]; d 19, 24 h after the last insufflation) | number of rabbits with remission of the tumor (VX2 auricular carcinoma) | grade of adverse effect (weight loss) [2]
O=O [O2] | 5.68 10^6/mm^3 | 5.31 10^6/mm^3 | two | –
O=[O+][O-] [ozone] | – | – | – | grade II

Reference: US20100189807A1, “Use of an ozone / oxygen mixture as a primary anticancer therapy via intraperitoneal insufflation” (priority 2009, published 2010)
